Experimental data: US20230250077A1, “SULFONYLBENZAMIDE DERIVATIVE AND CONJUGATE THEREOF, PREPARATION METHOD THEREFOR AND USE THEREOF” (Jiangsu Hengrui Pharmaceuticals Co., Ltd., priority 2020, published 2023)

Tests used:
BCL-xL = target: T1, BCL-xL (Homo sapiens, UniProt Q07817); test: Binding activity for BCL-xL (HTRF, biotin-labeled BIM); conditions: His-tagged BCL-xL
T1 construct: purchased R&D 894-BX-050
Description: In vitro BCL-xL-binding activity was tested by the following method.
Reagents used in this experiment: His-tagged BCL-xL protein (R&D, Cat #894-BX-050); biotin-labeled BIM protein (R&D, Cat #3526/1); binding buffer (cisbio, Cat #62DLBDDF); assay buffer (cisbio, Cat #62DB1FDG); MAb anti-6His-Eu cryptate (cisbio, Cat #61HI2KLA); and affinity streptomycin linked XL665 (cisbio, Cat #611SAXLA).
The in vitro binding assay described below can determine the binding activity of test compounds for BCL-xL.
The test compounds were dissolved in dimethyl sulfoxide and diluted to gradient concentrations as required for the experiment, and the compounds at various concentrations formulated in dimethyl sulfoxide were subjected to a 100-fold dilution with a binding buffer. BCL-xL was diluted to the corresponding concentration with a binding buffer, and added to a white 384-well plate at 4 μL/well. Then the diluted test compound was added to the white 384-well plate at 2 μL/well. The plate was incubated at 25° C. for 1 h after the mixture was uniformly mixed. Biotin-labeled BIM protein was diluted to the corresponding concentration with a binding buffer, and added to a white 384-well plate at 4 μL/well. The plate was incubated at 25° C. for 2 h after the mixture was uniformly mixed. The MAb anti-6His-Eu cryptate and the affinity streptomycin linked XL665 were each diluted to the corresponding concentration with an assay buffer, and added to a white 384-well plate at 5 μL/well. The plate was incubated at 25° C. for 2-4 h after the mixture was uniformly mixed. The signal values were read with the HTRF program in a microplate reader (BMG Labtech, model: PHERAstar FS).

BCL-2 = target: T2, BCL-2 (Homo sapiens, UniProt P10415); test: Binding activity for BCL-2 (HTRF, biotin-labeled BIM); conditions: His-tagged BCL-2, biotin-labeled BIM
T2 construct: purchased R&D systems 827-BC-050
Description: In vitro BCL-2-binding activity was tested by the following method.
Reagents used in this experiment: His-tagged BCL-2 protein (R&D systems, Cat #827-BC-050); biotin-labeled BIM protein (R&D, Cat #3526/1); binding buffer (cisbio, Cat #62DLBDDF); assay buffer (cisbio, Cat #62DB1FDG); MAb anti-6His-Eu cryptate (cisbio, Cat #61HI2KLA); and affinity streptomycin linked XL665 (cisbio, Cat #611SAXLA).
The in vitro binding assay described below can determine the binding activity of test compounds for BCL-2.
The test compounds were dissolved in dimethyl sulfoxide and diluted to gradient concentrations as required for the experiment, and the compounds at various concentrations formulated in dimethyl sulfoxide were subjected to a 100-fold dilution with a binding buffer. BCL-2 was diluted to the corresponding concentration with a binding buffer solution, and added to a white 384-well plate at 4 μL/well. Then the diluted test compound was added into the white 384-well plate at 2 μL/well. The plate was incubated at 25° C. for 1 h after the mixture was uniformly mixed. Biotin-labeled BIM protein was diluted to the corresponding concentration with a binding buffer, and added to a white 384-well plate at 4 μL/well. The plate was incubated at 25° C. for 2 h after the mixture was uniformly mixed. The MAb anti-6His-Eu cryptate and the affinity streptomycin linked XL665 were each diluted to the corresponding concentration with an assay buffer, and added to a white 384-well plate at 5 μL/well. The plate was incubated at 25° C. for 2-4 h after the mixture was uniformly mixed. The signal values were read with the HTRF program in a microplate reader (BMG Labtech, model: PHERAstar FS).

RS4;11 cells = test: Inhibition of proliferation of RS4;11 cells (CellTiter-Glo); type: cell-based; conditions: Homo sapiens, 72 h, 3 days, read-out: Inhibitory activity IC50 (nM) for the proliferation of RS4;11 cells
Description: (§1) In vitro inhibitory activity for the proliferation of RS4;11 cells and NCI-H146 cells was tested by the following method.
(§2) Reagents used in this experiment: RPMI-1640 medium (HyCLone, Cat #SH30243018); fetal bovine serum (Gibco, Cat #10099-141); pancreatin (Gibco, Cat #25200-072); Cell Titer-Glo (Promega, Cat #G7571).
(§3) Materials used: RS4;11 cells (Nanjing Kebai Biotechnology Co., Ltd, Cat #CBP60641); and NCI-H146 cells (ATCC, Cat #HTB-173).
(§4) The in vitro cell proliferation assay described below can determine the inhibitory activity of the test compounds for the proliferation of RS4;11 cells and NCI-H146 cells.
(§5) RS4;11 cells (or NCI-H146 cells) were cultured in an RPMI-1640 culture medium containing 10% FBS, and were passaged for 2-3 times a week in a passage ratio of 1:3 or 1:5. During passage, the cells were transferred to a centrifuge tube, and centrifuged at 1200 rpm for 3 min. The supernatant was discarded, and fresh culture medium was added to resuspend the cells. 90 μL of cell suspension was added to a 96-well cell culture plate, wherein RS4;11 cells and NCI-H146 cells were added at a density of 2.22×10^5 cells/mL. Only 100 μL of complete medium (RPMI-1640 medium containing 10% FBS) was added to the periphery of the 96-well plate. The plate was incubated in an incubator for 24 h (37° C., 5% CO2).
(§6) The test sample was diluted to a proper concentration gradient with dimethyl sulfoxide as required for the experiment. 5 μL of the solution of the test compound prepared in a gradient concentration was added to 95 μL of fresh culture medium and mixed uniformly, and then 10 μL of the culture medium containing the above compound was added to a cell culture plate. The cell culture plate was incubated in an incubator for 3 days (37° C., 5% CO2). 50 μL of CellTiter-Glo reagent was added into each well of the 96-well cell culture plate. The plate was let stand for 5-10 min away from the light at room temperature. The chemiluminescence signals were read by a microplate reader (BMG Labtech, model: PHERAstar FS) and the data were processed by GraphPad software.

NCI-H146 cells = test: Inhibition of proliferation of NCI-H146 cells (CellTiter-Glo); type: cell-based; conditions: Homo sapiens, 72 h, 3 days, read-out: Inhibitory activity IC50 (nM) for the proliferation of NCI-H146 cells
Description: as §1, §2, §3, §4, §5, §6

T1 sequence (Q07817 whole entry): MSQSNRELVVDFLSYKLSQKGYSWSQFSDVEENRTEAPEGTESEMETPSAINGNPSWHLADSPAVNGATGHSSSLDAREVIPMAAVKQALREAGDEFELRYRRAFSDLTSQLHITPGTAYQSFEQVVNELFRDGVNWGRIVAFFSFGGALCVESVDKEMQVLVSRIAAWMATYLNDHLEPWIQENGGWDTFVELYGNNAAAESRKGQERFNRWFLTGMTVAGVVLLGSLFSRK
T2 sequence (P10415 whole entry): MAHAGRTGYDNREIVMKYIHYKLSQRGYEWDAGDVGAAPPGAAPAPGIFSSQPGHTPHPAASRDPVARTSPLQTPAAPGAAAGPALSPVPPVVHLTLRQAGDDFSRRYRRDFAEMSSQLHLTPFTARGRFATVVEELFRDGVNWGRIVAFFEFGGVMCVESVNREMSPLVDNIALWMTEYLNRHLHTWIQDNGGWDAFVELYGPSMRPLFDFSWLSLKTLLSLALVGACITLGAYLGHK

O=C(NS(=O)(=O)c1ccc(N[C@@H](CSc2ccccc2)C[C@H]2CCCN2)c(S(=O)(=O)C(F)(F)F)c1)c1ccc(N2CCC([C@@H](O)c3ccccc3-c3ccc(Cl)cc3)CC2)cc1 [Example 2-1, 4-(4-((R)-(4′-chloro-[1,1′-biphenyl]-2-yl)(hydroxy)methyl)piperidin-1-yl)-N-((4-(((R)-1-(phenylthio)-3-((R)-pyrrolidin-2-yl)propan-2-yl)amino)-3-((trifluoromethyl)sulfonyl)phenyl)sulfonyl)benzamide]
Ki (BCL-xL): 90 pM | Ki (BCL-2): 70 pM | IC50 (RS4;11 cells): 23 nM | IC50 (NCI-H146 cells): 36 nM

O=C(NS(=O)(=O)c1ccc(N[C@@H](CSc2ccccc2)C[C@H]2CCCN2CCO)c(S(=O)(=O)C(F)(F)F)c1)c1ccc(N2CCC([C@@H](O)c3ccccc3-c3ccc(Cl)cc3)CC2)cc1 [Example 2-2, 4-(4-((R)-(4′-chloro-[1,1′-biphenyl]-2-yl)(hydroxy)methyl)piperidin-1-yl)-N-((4-(((R)-1-((R)-1-(2-hydroxyethyl)pyrrolidin-2-yl)-3-(phenylthio)propan-2-yl)amino)-3-((trifluoromethyl)sulfonyl)phenyl)sulfonyl)benzamide]
Ki (BCL-xL): 240 pM | Ki (BCL-2): 70 pM | IC50 (RS4;11 cells): 7 nM | IC50 (NCI-H146 cells): 33 nM

CO[C@@H](c1ccccc1-c1ccc(Cl)cc1)C1CCN(c2ccc(C(=O)NS(=O)(=O)c3ccc(N[C@@H](CSc4ccccc4)C[C@H]4CCCN4)c(S(=O)(=O)C(F)(F)F)c3)cc2)CC1 [Example 2-3, 4-(4-((R)-(4′-chloro-[1,1′-biphenyl]-2-yl)(methoxy)methyl)piperidin-1-yl)-N-((4-(((R)-1-(phenylthio)-3-((R)-pyrrolidin-2-yl)propan-2-yl)amino)-3-((trifluoromethyl)sulfonyl)phenyl)sulfonyl)benzamide]
Ki (BCL-xL): 170 pM | Ki (BCL-2): 100 pM | IC50 (RS4;11 cells): 58 nM | IC50 (NCI-H146 cells): 74 nM

CO[C@@H](c1ccccc1-c1ccc(Cl)cc1)C1CCN(c2ccc(C(=O)NS(=O)(=O)c3ccc(N[C@@H](CSc4ccccc4)C[C@H]4CCCN4CCO)c(S(=O)(=O)C(F)(F)F)c3)cc2)CC1 [Example 2-4, 4-(4-((R)-(4′-chloro-[1,1′-biphenyl]-2-yl)(methoxy)methyl)piperidin-1-yl)-N-((4-(((R)-1-((R)-1-(2-hydroxyethyl)pyrrolidin-2-yl)-3-(phenylthio)propan-2-yl)amino)-3-((trifluoromethyl)sulfonyl)phenyl)sulfonyl)benzamide]
Ki (BCL-xL): 320 pM | Ki (BCL-2): 130 pM | IC50 (RS4;11 cells): 34 nM | IC50 (NCI-H146 cells): 94 nM

O=C(NS(=O)(=O)c1ccc(N[C@@H](CSc2ccccc2)C[C@H]2CCCN2CCCO)c(S(=O)(=O)C(F)(F)F)c1)c1ccc(N2CCC([C@@H](O)c3ccccc3-c3ccc(Cl)cc3)CC2)cc1 [Example 2-5, 4-(4-((R)-(4′-chloro-[1,1′-biphenyl]-2-yl)(hydroxy)methyl)piperidin-1-yl)-N-((4-(((R)-1-((R)-1-(3-hydroxypropyl)pyrrolidin-2-yl)-3-(phenylthio)propan-2-yl)amino)-3-((trifluoromethyl)sulfonyl)phenyl)sulfonyl)benzamide]
Ki (BCL-xL): 450 pM | Ki (BCL-2): 130 pM | IC50 (RS4;11 cells): 9 nM | IC50 (NCI-H146 cells): 55 nM

CC(Sc1ccccc1)[C@@H](CCN(C)CCO)Nc1ccc(S(=O)(=O)NC(=O)c2ccc(N3CCC([C@@H](O)c4ccccc4-c4ccc(C(F)(F)F)cc4)CC3)cc2)cc1S(=O)(=O)C(F)(F)F (stereo partly drawn) [Example 2-7, 4-(4-((R)-hydroxy(4′-(trifluoromethyl)-[1,1′-biphenyl]-2-yl)methyl)piperidin-1-yl)-N-((4-(((3R)-1-((2-hydroxyethyl)(methyl)amino)-4-(phenylthio)pentan-3-yl)amino)-3-((trifluoromethyl)sulfonyl)phenyl)sulfonyl)benzamide]
Ki (BCL-2): 340 pM

O=C(NS(=O)(=O)c1ccc(N[C@@H](CSc2ccccc2)C[C@@H]2CCCN2)c(S(=O)(=O)C(F)(F)F)c1)c1ccc(N2CCC([C@@H](O)c3ccccc3-c3ccc(Cl)cc3)CC2)cc1 [Example 2-8, 4-(4-((R)-(4′-chloro-[1,1′-biphenyl]-2-yl)(hydroxy)methyl)piperidin-1-yl)-N-((4-(((R)-1-(phenylthio)-3-((S)-pyrrolidin-2-yl)propan-2-yl)amino)-3-((trifluoromethyl)sulfonyl)phenyl)sulfonyl)benzamide]
Ki (BCL-xL): 300 pM | Ki (BCL-2): 110 pM | IC50 (RS4;11 cells): 18 nM | IC50 (NCI-H146 cells): 46 nM

O=C(NS(=O)(=O)c1ccc(N[C@@H](CSc2ccccc2)C[C@@H]2CCCN2CCCO)c(S(=O)(=O)C(F)(F)F)c1)c1ccc(N2CCC([C@@H](O)c3ccccc3-c3ccc(Cl)cc3)CC2)cc1 [Example 2-11, 4-(4-((R)-(4′-chloro-[1,1′-biphenyl]-2-yl)(hydroxy)methyl)piperidin-1-yl)-N-((4-(((R)-1-((S)-1-(3-hydroxypropyl)pyrrolidin-2-yl)-3-(phenylthio)propan-2-yl)amino)-3-((trifluoromethyl)sulfonyl)phenyl)sulfonyl)benzamide]
Ki (BCL-xL): 100 pM | Ki (BCL-2): 40 pM | IC50 (RS4;11 cells): 5 nM | IC50 (NCI-H146 cells): 16 nM

O=C(NS(=O)(=O)c1ccc(N[C@@H](CSc2ccccc2)C[C@@H]2CCCN2)c(S(=O)(=O)C(F)(F)F)c1)c1ccc(N2CCC([C@@H](O)c3ccccc3-c3ccc(C(F)(F)F)cc3)CC2)cc1 [Example 2-12, 4-(4-((R)-hydroxy(4′-(trifluoromethyl)-[1,1′-biphenyl]-2-yl)methyl)piperidin-1-yl)-N-((4-(((R)-1-(phenylthio)-3-((S)-pyrrolidin-2-yl)propan-2-yl)amino)-3-((trifluoromethyl)sulfonyl)phenyl)sulfonyl)benzamide]
Ki (BCL-xL): 150 pM | Ki (BCL-2): 40 pM
